Source: patent US20110183891A1 (priority 2009, published 2011)
Entries after “also recorded” stand apart in the source; their conditions may differ. Positions of bridges follow the written chain, without caps; N, C: chain ends. Non-standard residues stand in square brackets, D forms with d. Residues, ends and D or L forms follow the SMILES beside them. hArg = N=C(N)NCCCC[C@H](N)C(=O)O; Mpa = O=C(O)CCS

Tests used:
[1] = tested on: SAP 6 binding to human platelets; conditions: for inhibition of SAP 6 binding to human platelets: ADP-activated platelets, Alexa Fluor 488 SAP 6
Experimental: Cells were incubated with labeled enzyme together with ADP and inhibitors respectively at 40° C., then pellets were resuspended in 100 ml Hepes-Tyrode buffer, and fluorescence measured by TECAN (Ex./Em.=488 nm/519 nm). […] T test (mean with SEM), n=3, *P<0.05, **P<0.001.
Recombinnat C. albicans SAP 6 was labeled with Alexa Fluor® 488 based on the Invitrogen Alexa Fluor® 488 protein labeling kit manual. […] To obtain the pure platelets, it needs to be further isolated as follows: (1) carefully transfer 10 ml platelets (including rich plasma) to a 15 ml tube and add 1/10 volume of ACD anticoagulant (6.25 g sodium citrate.2H2O, 3.1 g citric acid anhidrous, 3.4 g D-glucose in 250 ml H2O); (2) pellet platelets by centrifuged at 3000 rpm for 5 minutes at room temperature (note: after centrifugation, supernatant still contains significant amount of platelets and it can be collected for experiments); (3) resuspend the pellet in ˜1 ml Hepes-Tyrode buffer pH=7.4 (134 mM sodium chloride, 12 mM sodium bicarbonate, 2.9 mM potassium chloride, 0.34 mM sodium phosphate monobasic, 5 mM Hepes, 5 mM glucose, 1% BSA). When the human platelets were ready, they were incubated labeled SAP 6 with relative amount of platelets at 4° C., room temperature and 37° C. for 2 h, 1 h and 30 min respectively. The mixtures were washed by Hepes-Tyrode buffer two times at 1500 rpm for 8 min. Resuspended the pellets in Hepes-Tyrode buffer and mounted on glass slides. The glass slides were imaged by the epifluorescence microscope for simultaneous detection of Platelet/SAP 6-AlexaFluor-488 fluorescence (FIGS. 3A-B).
Purified recombination C. albicans SAP 6 was labeled by the Alexa Fluor° 488 Protein Labeling Kit from Invitrogen. […] Fifty μl purified human platelets were added into the total 100 μl reaction mixture. A gradient of ADP concentrations (0.25 μM, 0.5 μM and 1 μM) was designed to test if ADP can activate platelets during the binding assay (FIG. 4A).

[2] = tested on: SAP 6 binding to A549 cells; test: Inhibition of labeled SAP 6 binding to human lung carcinoma A549 cells (FACS); format: cell-based; conditions: for ratio of positive cells in R4: 400 μM inhibitor + labeled SAP 6, cells + labeled SAP 6 alone 3.23%, cells only 0.69%; for inhibition of SAP 6 binding to A549 cells: 10° C. for 30 min, FACS
Experimental: RGDS peptide or Integrilin® inhibition assay and cell viability assay. Grew human lung carcinoma A 549 cell and harvested the cells with 46×10^4 per ml. Changed the medium from complete growth medium into D-MEM/F-12 without phenol red; and transferred the aliquot volume of 0.2 ml cells into 1.5 ml sterile tubes. Added 50 μl of 2.4 mM RGDS peptide and Integrilin® into sample III and sample IV respectively, incubated all samples at 37° C. for 10 min. Then, added […] labeled Fluoro®-488 SAP 6 into Sample II, Sample III and Sample IV (Sample I is negative control, added 100 μl medium inside). Incubated the four mixtures at 10° C. for 30 min, and then centrifuged the cell cultures at 400 g at 10° C. for 5 min to remove the suspension. Washed the cells 1-2 times with 1 ml D-MEM/F-12 medium without phenol red to remove the unbound compounds. Sort the negative (non-labeling SAP 6) and positive (binding labeled SAP 6) cells by fluorescence-activated cell-sorting (FACS). […] It is often considered as a negative control.

[3] = biological target: integrin of A549 cells (human lung carcinoma cells)
[4] = cited from earlier work
A549 cells = test: Morphology assay, rescue of apoptosis of A549 cells induced by SAP 6; format: cell-based, human; conditions: bright-field images after two weeks incubation, data not shown

## N=C(N)NCCCC[C@@H]1NC(=O)CCSSC[C@@H](C(N)=O)NC(=O)[C@@H]2CCCN2C(=O)[C@H](Cc2c[nH]c3ccccc23)NC(=O)[C@H](CC(=O)O)NC(=O)CNC1=O [Integrilin®] ([Mpa][hArg]GDWPC-NH2; disulfide 1-7)
[1]
  inhibition of SAP 6 binding to human platelets: dose-dependent inhibition
[2]
  ratio of positive cells in R4: 2.42%
  inhibition of SAP 6 binding to A549 cells: can inhibit; also recorded: significantly inhibit

## Integrilin® (C35H49N11O9S2, molecular weight 831.96) (peptide)
[3]
  ratio of positive cells in R4: 2.42%

## OC(Cn1cncn1)(Cn1cncn1)c1ccc(F)cc1F [Fluconazole]
[4]; in vivo, po
  absorption from the GI tract: almost completely absorbed

## CCC(C)n1ncn(-c2ccc(N3CCN(c4ccc(OCC5COC(Cn6cncn6)(c6ccc(Cl)cc6Cl)O5)cc4)CC3)cc2)c1=O (stereo not shown) [Itraconazole]
[4]; in vivo, po
  absorption in the fasting state relative to drug taken with food: 30%

## Arg-Gly-Asp-Ser (RGDS)
A549 cells
  rescue of apoptosis of A549 cells induced by SAP 6: can rescue the apoptosis
[1]
  inhibition of SAP 6 binding to human platelets: dose-dependent inhibition
[1]; FIG. 4B
  inhibition of SAP 6 binding to human platelets, compared between inhibitors: much stronger than that of Integrilin®
[2]
  ratio of positive cells in R4: 1.68%
  inhibition of SAP 6 binding to A549 cells: much more inhibition than that of Integrilin®; also recorded: significantly inhibit

## Clc1ccc(COC(Cn2ccnc2)c2ccc(Cl)cc2Cl)cc1 (stereo not shown) [Econazole]
[4]; in vivo
  absorbed into the blood: Less than 1%

## secreted aspartic protease 6 (SAP 6) from Candida albicans, recombinant (from UniProt P43095) (enzyme)
[3]
  ratio of positive cells in R4: 3.23%

## Clc1ccccc1C(c1ccccc1)(c1ccccc1)n1ccnc1 [Clotrimazole]
[4]; in vivo
  absorption after application to the skin: less than 0.5%
  absorption from the vagina: 3-10%

## SDGRG: reverse peptide with no competition for integrin binding, negative control
[2]
  inhibition of SAP 6 binding to A549 cells: significantly less inhibition
[2]; listed as RDGRG
  inhibition of SAP 6 binding to A549 cells: less inhibitory

## CC(=O)N1CCN(c2ccc(OCC3COC(Cn4ccnc4)(c4ccc(Cl)cc4Cl)O3)cc2)CC1 (stereo not shown) [Ketoconazole]
[4]; oral doses 200-800 mg
  peak plasma concentrations: 4 to 20 µg/mL

## RGDS [RGDS peptide (Arg-Gly-Asp-Ser)]
[3]
  ratio of positive cells in R4: 1.68%
